Source: PubChem BioAssay (NCI)
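Test compounds were applied to cells in 96-well plates for 48 hours at 5 doses. Here, GI50 denotes the concentration required for 50% inhibition of growth. TGI is the concentration that stops growth completely.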

Legend:
Experiment in all cases: NCI tumour cell line growth inhibition, 48 h
MCF7 breast = system: MCF7 breast
A549 NSCLC = system: A549 NSCLC
HL-60(TB) leukemia = system: HL-60(TB) leukemia
RPMI-8226 leukemia = system: RPMI-8226 leukemia
U251 CNS = system: U251 CNS
NCI/ADR-RES ovarian = system: NCI/ADR-RES ovarian
CCRF-CEM leukemia = system: CCRF-CEM leukemia
NCI-H522 lung = system: NCI-H522 lung
CAKI-1 renal = system: CAKI-1 renal
OVCAR-4 ovarian = system: OVCAR-4 ovarian
SK-MEL-5 melanoma = system: SK-MEL-5 melanoma
HCC-2998 colon = system: HCC-2998 colon
HCT-15 colon = system: HCT-15 colon
M14 melanoma = system: M14 melanoma
MALME-3M melanoma = system: MALME-3M melanoma
PC-3 prostate = system: PC-3 prostate
OVCAR-5 ovarian = system: OVCAR-5 ovarian
SF-295 CNS = system: SF-295 CNS
HT29 colon = system: HT29 colon
SN12C renal = system: SN12C renal
SF-539 CNS = system: SF-539 CNS
OVCAR-8 ovarian = system: OVCAR-8 ovarian
SF-268 CNS = system: SF-268 CNS
SW-620 colon = system: SW-620 colon
SNB-75 CNS = system: SNB-75 CNS
SR leukemia = system: SR leukemia
ACHN renal = system: ACHN renal
HOP-92 NSCLC = system: HOP-92 NSCLC
EKVX NSCLC = system: EKVX NSCLC

CC(C)(C)Nc1nc2c(OCCc3ccccc3)cccn2c1-c1cccc(F)c1
GI50 (MCF7 breast): 4.34 µM | TGI (MCF7 breast): 32.4 µM | GI50 (A549 NSCLC): 4.4 µM | TGI (A549 NSCLC): > 100 µM | GI50 (HL-60(TB) leukemia): 3.78 µM | TGI (HL-60(TB) leukemia): 18.8 µM | GI50 (RPMI-8226 leukemia): 3.7 µM | TGI (RPMI-8226 leukemia): 62.1 µM | GI50 (U251 CNS): 6.19 µM | TGI (U251 CNS): 25.2 µM | GI50 (NCI/ADR-RES ovarian): 4.25 µM | TGI (NCI/ADR-RES ovarian): > 100 µM | GI50 (CCRF-CEM leukemia): 6.53 µM | TGI (CCRF-CEM leukemia): > 100 µM | GI50 (NCI-H522 lung): 4.17 µM | TGI (NCI-H522 lung): 42.3 µM | GI50 (CAKI-1 renal): 5.22 µM | TGI (CAKI-1 renal): > 100 µM | GI50 (OVCAR-4 ovarian): 4.52 µM | TGI (OVCAR-4 ovarian): > 100 µM | GI50 (SK-MEL-5 melanoma): 5.26 µM | TGI (SK-MEL-5 melanoma): 17.7 µM | GI50 (HCC-2998 colon): 4.81 µM | TGI (HCC-2998 colon): 69.6 µM | GI50 (HCT-15 colon): 3.51 µM | TGI (HCT-15 colon): 14.2 µM | GI50 (M14 melanoma): 6.79 µM | TGI (M14 melanoma): 32.1 µM | GI50 (MALME-3M melanoma): 3.6 µM | TGI (MALME-3M melanoma): 22.8 µM | GI50 (PC-3 prostate): 4.91 µM | TGI (PC-3 prostate): > 100 µM | GI50 (OVCAR-5 ovarian): 8.58 µM | TGI (OVCAR-5 ovarian): > 100 µM | GI50 (SF-295 CNS): 4.41 µM | TGI (SF-295 CNS): 22 µM | GI50 (HT29 colon): 5.02 µM | TGI (HT29 colon): 24 µM | GI50 (SN12C renal): 3.99 µM | TGI (SN12C renal): > 100 µM | GI50 (SF-539 CNS): 10.1 µM | TGI (SF-539 CNS): 23.1 µM | GI50 (OVCAR-8 ovarian): 9.39 µM | TGI (OVCAR-8 ovarian): > 100 µM | GI50 (SF-268 CNS): 7.84 µM | TGI (SF-268 CNS): > 100 µM | GI50 (SW-620 colon): 11.3 µM | TGI (SW-620 colon): 87.1 µM | GI50 (SNB-75 CNS): 16.1 µM | TGI (SNB-75 CNS): > 100 µM | GI50 (SR leukemia): 4.48 µM | TGI (SR leukemia): > 100 µM | GI50 (ACHN renal): 4.63 µM | TGI (ACHN renal): > 100 µM | GI50 (HOP-92 NSCLC): 3.3 µM | TGI (HOP-92 NSCLC): > 100 µM | GI50 (EKVX NSCLC): 3.44 µM | TGI (EKVX NSCLC): > 100 µM
